System: laser-induced CNV
Experiment: Laser-induced choroidal neovascularization (CNV) volume after intravitreous injection
Type: in vivo, mouse
Method: Laser photocoagulation (532 nm, 200 mW, 100 ms, 75 μm; OcuLight GL, Iridex, Mountain View, Calif.) was performed on both eyes of each animal by a single individual masked to genetic identity. Laser spots (volume studies: 3/eye; angiography: 4/eye; protein analyses/flow cytometry: 12/eye) were applied in a standardized fashion around the optic nerve, using a slit lamp delivery system and a cover slip as a contact lens. The morphological endpoint of the laser injury was the appearance of a cavitation bubble, a sign thought to correlate with the disruption of Bruch's membrane.
Two weeks after laser injury, eyes were enucleated and fixed with 4% paraformaldehyde (PFA) for 30 minutes at 4° C. […]
Flat mounts were examined with a scanning laser confocal microscope (TCS SP, Leica, Heidelberg, Germany). […] The area of CNV-related fluorescence was measured by computerized image analysis with the microscope software (TCS SP; Leica). […]
Because the probability of each laser lesion developing CNV is influenced by the group to which it belongs, the mouse, the eye, and the laser spot, the mean lesion volumes were compared using a linear mixed model with a split plot repeated measures design, as previously described (Sakurai, et al., (2003), Invest Opthalmol Vis Sci 44, 2743-2749; Sakurai et al., (2003), Invest Opthalmol Vis Sci 44, 3578.3585). […] Statistical significance was determined at the 0.05 level. […]

For “Recombinant MCP-1: recombinant mouse MCP-1 protein (Ccl-2)”, the “Effect on CNV” value (MCP-1 knock out mice (FIG. 5, FIG. 6)) was “restores CNV” and the “CNV restored, % of control” value (recombinant MCP-1 0.55 ng given with anti-VEGF-A antibody, n=6, P=0.82) was 95.7±13.0 % of control.

Source: US20080299130A1, “Methods And Compositions For The Treatment Of Ocular Neovascularization” (UNIVERSITY OF KENTUCKY RESEARCH FOUNDATION, priority 2004, published 2008)
